Measurements taken from patent US20150125515A1, “NOVEL SP-B & SP-C PEPTIDES, SYNTHETIC LUNG SURFACTANTS, AND USE THEREOF” (UNIVERSITY OF ROCHESTER, priority 2012, published 2015).

How the values were obtained:
[1] = Pulsating bubble surfactometer, minimum surface tension; assay type: physicochemical; details: Table 8, 37° C, 20 cycles/min, 50% area compression, 2.5 mg/ml phospholipid, Means ± SEM, N = 4
Method: (§1) Surface activity of synthetic peptide/lipid surfactant compositions was assessed by either or both of the following methods: (1) measurement of the adsorption of surfactant compositions to the air-water interface as a function of time, and (2) measurement of overall dynamic surface activity on a pulsating bubble surfactometer (general methodological details of these two experimental techniques are described by Notter, Lung Surfactants: Basic Science and Clinical Applications, Marcel Dekker, Inc, New York (2000), which is hereby incorporated by reference in its entirety).
In pulsating bubble studies, surface tension at minimum bubble radius (minimum surface tension) was determined as a function of time during pulsation on a bubble surfactometer (General Transco, Largo, Fla.) (37° C., 20 cycles/min, 50% area compression). A tiny air bubble was formed and pulsated between maximum and minimum radii of 0.55 and 0.4 mm, respectively, and the pressure drop across the air-water interface of the bubble was measured with a precision transducer. Minimum surface tension was calculated from the measured pressure drop at minimum radius (0.4 mm) from the Laplace equation (Enhorning, “Pulsating Bubble Technique for Evaluation of Pulmonary Surfactant,” J Appl Physiol 43:198-203 (1977); Hall et al., “Approximations in the Measurement of Surface Tension with the Oscillating Bubble Surfactometer,” J Appl Physiol 75:468-477 (1993), each of which is hereby incorporated by reference in its entirety). Measurements of overall surface activity on this instrument reflect the combined effects of adsorption and dynamic film compression at a cycling rate (20 cycles/min), temperature (37° C.), and area compression (50% compression from maximum to minimum area) relevant for the mammalian lungs in vivo (Notter, Lung Surfactants: Basic Science and Clinical Applications, Marcel Dekker, Inc, New York (2000); Enhorning, “Pulsating Bubble Technique for Evaluation of Pulmonary Surfactant,” J Appl Physiol 43:198-203 (1977); Notter et al., “Pulmonary Surfactant: Physical Chemistry, Physiology and Replacement,” Rev Chem Eng 13:1-118 (1997), each of which is hereby incorporated by reference in its entirety).

[2] = Adsorption of surfactant compositions to the air-water interface (surface pressure vs time, Wilhelmy method); assay type: physicochemical; details: Means ± SEM
Method: as §1
In adsorption studies, a given surfactant mixture was injected at time zero beneath the surface of a stirred surfactant-free subphase, and surface pressure (defined as surface tension lowering below that of the pure subphase) was measured as a function of time from the force on a hanging platinum slide (“Wilhelmy” method). By definition, higher surface pressure corresponds to lower surface tension (Notter, Lung Surfactants: Basic Science and Clinical Applications, Marcel Dekker, Inc, New York (2000)).

[3] = tested on: ventilated rabbits with ARDS induced by saline lavage; assay: Saline-lavage ventilated rabbit model of ARDS: arterial oxygenation and dynamic compliance; assay type: in vivo, New Zealand white rabbits; details: intratracheal 100 mg/kg
Method: Saline lavage produces surfactant deficiency, alveolar collapse and lung edema in ventilated rats and rabbits, and is a useful experimental model for human ARDS. A saline-lavage rabbit model for lung injury was thus used to compare synthetic surfactants, with lipids only as negative control. Restoration of lung function was assessed by serial monitoring of gas exchange and lung mechanics. Physiological activity results for selected synthetic SP-B peptides are shown below, and physiological activity results for selected synthetic SP-C peptides are included in following Example 8.
Animal experiments were performed following established protocols approved by the Animal Care and Use Committee at the Los Angeles Biomedical Research Institute at Harbor-UCLA Medical Center. […] In brief, experimental animals were commercially available young adult male New Zealand white rabbits whose respiratory function was followed during mechanical ventilation by measurements of serial arterial blood gases and pulmonary compliance over the first 2 hours after a standardized saline lavage protocol. For this timeframe of study, the model reflected a relatively pure state of surfactant insufficiency in animals with mature lungs. Saline lavage administration was performed after induction of anesthesia, insertion of a venous line in a marginal ear vein, endotracheal intubation and initiation of mechanical ventilation, muscle paralysis, and insertion of a carotid arterial line. Heart rate, arterial blood pressure and rectal temperature were measured continuously. After stabilization on the ventilator, saline lavage was performed with repeated intratracheal instillation and removal of 30 mL of normal saline until the PaO2 dropped below 100 mm Hg (average 3 lavages). Maintenance fluid was provided by a continuous infusion of Lactated Ringer's solution at a rate of 10 ml/kg/h. Edema fluid appearing in the trachea was removed by suctioning. When the PaO2 was stable at less than 100 mm Hg in saline lavaged animals, an experimental or control surfactant mixture was instilled into the trachea at a dose of 100 mg/kg body weight and a concentration of 35 mg/mL. The rabbits were ventilated using a Harvard volume-controlled animal ventilator (tidal volume 7.5 ml/kg, a positive end-expiratory pressure [PEEP] of 3 cm H2O, an inspiratory/expiratory ratio of 1:2, 100% oxygen, and a respiratory rate to maintain a PaCO2 at ˜40 mm Hg). Airway flow and pressures and tidal volume were monitored continuously with a pneumotachograph connected to the endotracheal tube and a pneumotach system. Arterial pH and blood gases were done every 15 minutes. Dynamic lung compliance was calculated by dividing tidal volume/kg body weight by changes in airway pressure (peak inspiratory pressure minus positive end-expiratory pressure) (mL/kg/cmH2O). Animals were sacrificed 2 h after surfactant administration with an overdose of pentobarbital. End-points are pulmonary gas exchange (arterial pH, PaCO2 and PaO2) and pulmonary mechanics (dynamic compliance, postmortem pressure-volume curves). Each treatment group consisted of n=4-9 animals.
The in vivo pulmonary activity of reduced MB DATK and SMB DATK was investigated in comparison with oxidized SMB and MB (positive controls) and lipids alone (negative control) over 120 min, following intratracheal instillation of these surfactants into ventilated rabbits with ARDS induced by saline lavage. Oxidized SMB and MB were used as positive controls, because these SP-B mimics previously indicated high in vivo surfactant activities equal to those of native, full-length porcine SP-B in ventilated rats with ARDS (Walther et al., “Critical Structural and Functional Roles for the N-terminal Insertion Sequence in Surfactant Protein B Analogs,” PLoS One 5:e8672 (2010), which is hereby incorporated by reference in its entirety). […]

[4] = storage in organic solvent or in surfactant lipids for 4-6 weeks; Walther et al. 2007; cited from earlier work
[5] = synthetic peptide; Walther et al. 2000; cited from earlier work
[6] = Table 7, 0.0625 mg phospholipid/ml of subphase, normal saline pH 7.0, 37 ± 0.5° C, N = 4
[7] = Table 9, phospholipase-resistant lipids, 0.0625 mg phospholipid/ml, n = 4
[8] = Table 13, SP-B plus SP-C peptide (1.5%:1.5%) with resistant lipids or glycerophospholipids, 0.0625 mg phospholipid/ml, n = 4

For `CCCCCCCCCCCCCCCCOCC(COP(=O)(O)CCC[N+](C)(C)C)OCCCCCCCCCCCCCCCC` (racemic) [DEPN-8, [(±)-trimethyl(3-phosphonopropyl)ammonium, mono(2,3-bis(hexadecyloxy)propyl ester]], the “Minimum Surface Tension at 0.25 min of bubble pulsation” value ([1]; 0.25 min) was 31.2 ± 2.0 mN/m, the “Minimum Surface Tension at 0.5 min of bubble pulsation” value ([1]; 0.5 min) was 27.1 ± 1.8 mN/m and the “Minimum Surface Tension at 1 min of bubble pulsation” value ([1]; 1 min) was 21.2 ± 1.5 mN/m. For the same compound, the “Minimum Surface Tension at 2 min of bubble pulsation” value ([1]; 2 min) was 14.6 ± 1.2 mN/m, the “Minimum Surface Tension at 5 min of bubble pulsation” value ([1]; 5 min) was 7.8 ± 1.7 mN/m and the “Minimum Surface Tension at 10 min of bubble pulsation” value ([1]; 10 min) was 1.5 ± 1.0 mN/m. The “Minimum Surface Tension at 15 min of bubble pulsation” value ([1]; 15 min) was under 1 mN/m, the “Adsorption Surface Pressure at time 0 min” value [2, 6] was 0 ± 0.0 mN/m and the “Adsorption Surface Pressure at time 1 min” value [2, 6] was 12.9 ± 2.9 mN/m. For the same compound, the “Adsorption Surface Pressure at time 2 min” value [2, 6] was 16.0 ± 1.6 mN/m, the “Adsorption Surface Pressure at time 5 min” value [2, 6] was 17.8 ± 1.7 mN/m and the “Adsorption Surface Pressure at time 10 min” value [2, 6] was 18.0 ± 1.7 mN/m. The “Adsorption Surface Pressure at time 15 min” value [2, 6] was 18.2 ± 1.7 mN/m, the “Adsorption Surface Pressure at time 0 min” value [2, 7] was 0.0 ± 0.0 mN/m and the “Adsorption Surface Pressure at time 1 min” value [2, 7] was 12.9 ± 2.9 mN/m. For the same compound, the “Adsorption Surface Pressure at time 2 min” value [2, 7] was 16.0 ± 1.6 mN/m, the “Adsorption Surface Pressure at time 5 min” value [2, 7] was 17.8 ± 1.7 mN/m and the “Adsorption Surface Pressure at time 10 min” value [2, 7] was 18.0 ± 1.7 mN/m. For the same compound, the “Adsorption Surface Pressure at time 15 min” value [2, 7] was 18.2 ± 1.7 mN/m, the “Adsorption Surface Pressure at time 0 min” value [2, 8] was 0.0 ± 0.0 mN/m and the “Adsorption Surface Pressure at time 1 min” value [2, 8] was 12.9 ± 2.9 mN/m. The “Adsorption Surface Pressure at time 2 min” value [2, 8] was 16.0 ± 1.6 mN/m, the “Adsorption Surface Pressure at time 5 min” value [2, 8] was 17.8 ± 1.7 mN/m and the “Adsorption Surface Pressure at time 10 min” value [2, 8] was 18.0 ± 1.7 mN/m. The “Adsorption Surface Pressure at time 15 min” value [2, 8] was 18.2 ± 1.7 mN/m.

For “GIPFFPVHLKRLLIVVVVVVLIVVVIVGALLMGL [SP-Cff]”, the “Oxygenation and lung compliance after instillation (FIG. 2)” value ([3]; SP-C mimics 3.0% by weight in 5:3:2 (weight ratio) DPPC:POPC:POPG, PBS pH 7.4, 35 mg/mL) is listed as “much less so”, the “relative order of pulmonary activity in terms of oxygenation and lung compliance” value ([3]; SP-C mimics 3.0% by weight in 5:3:2 DPPC:POPC:POPG) is listed as “SP-C33˜SP-Css ion-lock>SP-Cff>Lipids alone” and the “conformational stability upon storage (FTIR)” value [4] is listed as “self-associates to form β-sheet aggregates”. The solubility in chloroform-methanol [5] was “low solubility”.
